Data on 21 compounds can be found in patent US12522594B2, “2-heteroaryl-3-oxo-2,3-dihydropyridazine-4-carboxamides for the treatment of cancer” (Deutsches Krebsforschungszentrum, priority 2017, dated 2026).

Each structure is given as a SMILES string. pIC50: −log10 of the molar value.

Experiment [1] deals with T1, AHR (Homo sapiens, UniProt P35869).
T1 sequence (P35869 11-848): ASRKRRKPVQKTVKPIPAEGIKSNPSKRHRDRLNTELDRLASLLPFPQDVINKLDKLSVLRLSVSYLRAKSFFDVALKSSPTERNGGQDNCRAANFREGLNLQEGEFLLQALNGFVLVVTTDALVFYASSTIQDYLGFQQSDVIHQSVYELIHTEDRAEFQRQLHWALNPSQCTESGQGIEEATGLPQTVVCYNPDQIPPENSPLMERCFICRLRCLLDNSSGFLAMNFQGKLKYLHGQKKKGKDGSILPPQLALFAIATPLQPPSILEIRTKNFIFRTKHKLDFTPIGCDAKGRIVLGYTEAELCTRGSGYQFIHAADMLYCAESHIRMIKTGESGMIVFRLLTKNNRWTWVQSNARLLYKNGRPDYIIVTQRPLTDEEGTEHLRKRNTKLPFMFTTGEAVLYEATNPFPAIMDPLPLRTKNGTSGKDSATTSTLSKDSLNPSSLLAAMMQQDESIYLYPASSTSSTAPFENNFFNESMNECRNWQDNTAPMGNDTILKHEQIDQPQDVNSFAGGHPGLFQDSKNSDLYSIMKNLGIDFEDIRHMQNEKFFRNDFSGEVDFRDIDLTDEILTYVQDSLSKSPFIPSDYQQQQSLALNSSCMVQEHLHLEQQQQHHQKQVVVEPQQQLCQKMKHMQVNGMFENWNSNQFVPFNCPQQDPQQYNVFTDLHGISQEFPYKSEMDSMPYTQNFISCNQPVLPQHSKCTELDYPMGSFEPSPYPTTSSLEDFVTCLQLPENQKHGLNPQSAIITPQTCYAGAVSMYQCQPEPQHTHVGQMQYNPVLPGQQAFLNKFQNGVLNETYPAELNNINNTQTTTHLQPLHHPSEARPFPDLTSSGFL
The experiment can be described thus: In vitro assay 1: antagonism in human cell line (transactivation assay, U87 cells prestimulated with kynurenic acid, DRE firefly luciferase reporter). The class given is cell-based. The settings on record: 150 uM kynurenic acid, 20 hours, read-out: Assay 1: AHR-luc Hum Antagonism IC50. Also on record: host or cells: U87 glioblastoma cells, stably transfected with DRE firefly luciferase and renilla reporter constructs. The method in brief:
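Antagonism measured after kynurenic acid prestimulation in U87 cells that express AHR endogenously and stably harbor a firefly luciferase gene under DRE control plus a constitutive renilla construct. Positive and negative controls served for normalization.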

Experiment [2] addresses T1, AHR. Kind of experiment: In vitro assay 2: agonism in human cell line (transactivation assay, U87 cells, DRE firefly luciferase reporter). More on the design: host or cells: U87 glioblastoma cells, stably transfected with DRE firefly luciferase and renilla reporter constructs. In kind it is cell-based. As to conditions: no kynurenic acid, 20 hours, read-out: Assay 2: AHR-luc Hum Agonism IC50. The procedure, abridged:
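Agonist readout: DRE firefly luciferase, with constitutive renilla reporter, in stably transfected U87 cells expressing AHR endogenously. Normalization used positive control (300 uM kynurenic acid) and negative control.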

For the compound `O=C(N[C@@H]1CC[C@@H]1O)c1cc(-c2ccc(C(F)(F)F)cc2)nn(-c2cccnc2)c1=O` (single isomer, unassigned) [Example 268, (−)-N-cis-2-Hydroxycyclo-butyl-3-oxo-2-(pyridin-3-yl)-6-[4-(trifluoromethyl)phenyl]-2,3-dihydropyridazine-4-carboxamide], the pIC50 is 7.24 in experiment [1] and less than 4.70 in experiment [2].

As for `O=C(NCC(O)C(F)(F)F)c1cc(-c2ccc(OC(F)(F)F)cc2)nn(-c2cccnc2)c1=O` (stereo not drawn) [Example 146, 3-Oxo-2-(pyridin-3-yl)-N-[3,3,3-trifluoro-2-hydroxypropyl]-6-[4-(trifluoromethoxy)phenyl]-2,3-dihydropyridazine-4-carboxamide], the negative-log IC50 (pIC50) is 7.99 in experiment [1] and less than 4.70 in experiment [2].

As to `COC(=O)[C@@H](CO)NC(=O)c1cc(-c2ccc(Cl)cc2)nn(-c2cnn(C)c2)c1=O` [Example 267, Methyl N-{[6-(4-chlorophenyl)-2-(1-methyl-1H-pyrazol-4-yl)-3-oxo-2,3-dihydropyridazine-4-yl]carbonyl}-D-serinate], the pIC50 was 7.24 in experiment [1] and less than 4.70 in experiment [2].

Take `Cn1cc(-n2nc(-c3ccc(OC(F)(F)F)cc3)cc(C(=O)N[C@@H]3COC[C@H]3O)c2=O)cn1` (single isomer, unassigned; enantiomer 1) [Example 64, N-[(trans)-4-Hydroxytetrahydrofuran-3-yl]-2-(1-methyl-1H-pyrazol-4-yl)-3-oxo-6-[4-(trifluoromethoxy)phenyl]-2,3-dihydropyridazine-4-carboxamide, Enantiomer 1]: the pIC50 is 7.09 in experiment [1] and less than 4.70 in experiment [2].

Turning to `C[C@@H](CO)NC(=O)c1cc(-c2ccc(Cl)cc2)nn(-c2cnoc2)c1=O` [Example 253, 6-(4-Chlorophenyl)-N-[(2S)-1-hydroxypropan-2-yl]-2-(1,2-oxazol-4-yl)-3-oxo-2,3-dihydropyridazine-4-carboxamide], the figures for the pIC50 in experiment [1] and in experiment [2] were 7.71 and less than 4.70, respectively.

For the compound `CCC(CO)NC(=O)c1cc(-c2ccc(C)cc2)nn(-c2cnn(C)c2)c1=O` (stereo not drawn) [Example 4, N-(1-Hydroxybutan-2-yl)-6-(4-methylphenyl)-2-(1-methyl-1H-pyrazol-4-yl)-3-oxo-2,3-dihydropyridazine-4-carboxamide], the results for the negative-log IC50 (pIC50) in experiment [1] and in experiment [2] were 8.02 and less than 4.70, respectively.

Regarding `O=C(N[C@H](CO)CF)c1cc(-c2ccc(C(F)(F)F)cc2)nn(-c2cnsc2)c1=O` [Example 203, N-[(2R)-1-Fluoro-3-hydroxypropan-2-yl]-3-oxo-2-(1,2-thiazol-4-yl)-6-[4-(trifluoromethyl)phenyl]-2,3-dihydropyridazine-4-carboxamide], the pIC50 in experiment [1] was 9.07; in experiment [2], less than 4.70.

With `C[C@H](NC(=O)c1cc(-c2ccc(C(F)(F)F)nc2)nn(-c2cncc(F)c2)c1=O)C(C)(C)O` [Example 340, 2-(5-Fluoropyridin-3-yl)-N-[(2S)-3-hydroxy-3-methylbutan-2-yl]-3-oxo-6-[6-(trifluoromethyl)pyridin-3-yl]-2,3-dihydropyridazine-4-carboxamide], the values for the pIC50 in experiment [1] and in experiment [2] were 7.30 and less than 4.70, respectively.

With `Cn1cc(-n2nc(-c3ccc(OC(F)(F)F)cc3)cc(C(=O)N[C@@H]3COC[C@H]3O)c2=O)cn1` (racemic) [Example 63, N-[(trans)-4-Hydroxytetrahydrofuran-3-yl]-2-(1-methyl-1H-pyrazol-4-yl)-3-oxo-6-[4-(trifluoromethoxy)phenyl]-2,3-dihydropyridazine-4-carboxamide], the pIC50 in experiment [1] is 7.09; in experiment [2], less than 4.70.

Consider `O=C(NCC1(O)CC1)c1cc(-c2ccc(Cl)cc2)nn(-c2cccnc2)c1=O` [Example 263, 6-(4-Chlorophenyl)-N-[(1-hydroxycyclopropyl)methyl]-3-oxo-2-(pyridin-3-yl)-2,3-dihydropyridazine-4-carboxamide], for which the figures for the pIC50 in experiment [1] and in experiment [2] were 7.38 and less than 4.70, respectively.

`CC(C)(O)C(NC(=O)c1cc(-c2ccc(Cl)cc2)nn(-c2cccnc2)c1=O)C(F)(F)F` (single isomer, unassigned; enantiomer 1) [Example 122, 6-(4-Chlorophenyl)-3-oxo-2-(pyridin-3-yl)-N-(1,1,1-trifluoro-3-hydroxy-3-methylbutan-2-yl)-2,3-dihydropyridazine-4-carboxamide, Enantiomer 1]: the values for the negative-log IC50 (pIC50) in experiment [1] and in experiment [2] were 7.58 and less than 4.70, respectively.

As to `C[C@@H](NC(=O)c1cc(-c2ccc(Cl)cc2)nn(-c2cccnc2)c1=O)C(C)(C)O` [Example 302, 6-(4-Chlorophenyl)-N-[(2R)-3-hydroxy-3-methylbutan-2-yl]-3-oxo-2-(pyridin-3-yl)-2,3-dihydropyridazine-4-carboxamide], the pIC50 in experiment [1] was 7.09; in experiment [2], less than 4.70.

`COC[C@@H](CO)NC(=O)c1cc(-c2ccc(Cl)cc2)nn(-c2cncc(F)c2)c1=O` [Example 85, 6-(4-Chlorophenyl)-2-(5-fluoropyridin-3-yl)-N-[(2R)-1-hydroxy-3-methoxypropan-2-yl]-3-oxo-2,3-dihydropyridazine-4-carboxamide]: the pIC50 is 7.44 in experiment [1] and less than 4.70 in experiment [2].

Take `O=C(N[C@H](CO)C(F)(F)F)c1cc(-c2ccc(Cl)cc2)nn(-c2cncc(F)c2)c1=O` [Example 100, 6-(4-Chlorophenyl)-2-(5-fluoropyridin-3-yl)-3-oxo-N-[(2R)-1,1,1-trifluoro-3-hydroxypropan-2-yl]-2,3-dihydropyridazine-4-carboxamide]: the pIC50 in experiment [1] is 7.90; in experiment [2], less than 4.70.

In the case of `Cn1cc(-n2nc(-c3ccc(C(F)(F)F)cc3)cc(C(=O)NCC(C)(C)O)c2=O)cn1` [Example 67, N-(2-Hydroxy-2-methylpropyl)-2-(1-methyl-1H-pyrazol-4-yl)-3-oxo-6-[4-(trifluoromethyl)phenyl]-2,3-dihydropyridazine-4-carboxamide], the pIC50 in experiment [1] is 8.37; in experiment [2], less than 4.70.

On to `C[C@@H](CO)NC(=O)c1cc(-c2ccc(Cl)cc2F)nn(-c2cccnc2)c1=O` [Example 163, 6-(4-Chloro-2-fluorophenyl)-N-[(2S)-1-hydroxypropan-2-yl]-3-oxo-2-(pyridin-3-yl)-2,3-dihydropyridazine-4-carboxamide], for which the pIC50 in experiment [1] was 6.87; in experiment [2], less than 4.70.

For `CC(C)(O)C(NC(=O)c1cc(-c2ccc(Cl)cc2)nn(-c2cncnc2)c1=O)C(F)(F)F` (single isomer, unassigned) [Example 187, 6-(4-Chlorophenyl)-3-oxo-2-(pyrimidin-5-yl)-N-(1,1,1-trifluoro-3-hydroxy-3-methylbutan-2-yl)-2,3-dihydropyridazine-4-carboxamide], the pIC50 in experiment [1] was 7.47; in experiment [2] it was less than 4.70.

For `O=C(N[C@H](CO)CF)c1cc(-c2ccc(C(F)(F)F)cc2)nn(-c2cccnc2)c1=O` [Example 221, N-[(2R)-1-Fluoro-3-hydroxypropan-2-yl]-3-oxo-2-(pyridin-3-yl)-6-[4-(trifluoromethyl)phenyl]-2,3-dihydropyridazine-4-carboxamide], the pIC50 in experiment [1] is 8.44; in experiment [2], less than 4.70.

In the case of `O=C(N[C@H]1CCC[C@@H]1O)c1cc(-c2ccc(C(F)F)nc2)nn(-c2cccnc2)c1=O` [Example 165, 6-[6-(Difluoromethyl)pyridin-3-yl]-N-[(1S,2S)-2-hydroxycyclopentyl]-3-oxo-2-(pyridin-3-yl)-2,3-dihydropyridazine-4-carboxamide], the pIC50 in experiment [1] was 6.68; in experiment [2] it was less than 4.70.

Take `COCC(O)CNC(=O)c1cc(-c2ccc(Cl)cc2)nn(-c2cnn(C)c2)c1=O` (single isomer, unassigned; (+)) [Example 26, (+)-6-(4-Chlorophenyl)-N-(2-hydroxy-3-methoxypropyl)-2-(1-methyl-1H-pyrazol-4-yl)-3-oxo-2,3-dihydropyridazine-4-carboxamide]: the pIC50 is 7.06 in experiment [1] and less than 4.70 in experiment [2].

For the compound `O=C(N[C@H]1COCC[C@H]1O)c1cc(-c2ccc(C(F)(F)F)nc2)nn(-c2cncc(F)c2)c1=O` [Example 343, 1,5-Anhydro-2,4-dideoxy-2-[({2-(5-fluoropyridin-3-yl)-3-oxo-6-[6-(trifluoromethyl)pyridin-3-yl]-2,3-dihydropyridazine-4-yl}carbonyl)amino]-D-erythro-pentitol], the pIC50 in experiment [1] was 6.77; in experiment [2], less than 4.70.
